From US12084420B2, “Indoline compounds for inhibiting KIF18A” (Volastra Therapeutics, Inc., priority 2021, dated 2024) come the findings set out here.

SMILES strings stand for the structures. Where two headings read alike, the source gives them in different places.

The target in one assay is hKIF18A (1-374) (Homo sapiens (Human), UniProt Q8NI77). Kind of assay: Inhibition of KIF18A microtubule-dependent ATPase activity (ADP-Glo). Background: In ADP-Glo the light output rises with the ADP produced.
Chain of hKIF18A (1-374) (Q8NI77 whole entry, looked up): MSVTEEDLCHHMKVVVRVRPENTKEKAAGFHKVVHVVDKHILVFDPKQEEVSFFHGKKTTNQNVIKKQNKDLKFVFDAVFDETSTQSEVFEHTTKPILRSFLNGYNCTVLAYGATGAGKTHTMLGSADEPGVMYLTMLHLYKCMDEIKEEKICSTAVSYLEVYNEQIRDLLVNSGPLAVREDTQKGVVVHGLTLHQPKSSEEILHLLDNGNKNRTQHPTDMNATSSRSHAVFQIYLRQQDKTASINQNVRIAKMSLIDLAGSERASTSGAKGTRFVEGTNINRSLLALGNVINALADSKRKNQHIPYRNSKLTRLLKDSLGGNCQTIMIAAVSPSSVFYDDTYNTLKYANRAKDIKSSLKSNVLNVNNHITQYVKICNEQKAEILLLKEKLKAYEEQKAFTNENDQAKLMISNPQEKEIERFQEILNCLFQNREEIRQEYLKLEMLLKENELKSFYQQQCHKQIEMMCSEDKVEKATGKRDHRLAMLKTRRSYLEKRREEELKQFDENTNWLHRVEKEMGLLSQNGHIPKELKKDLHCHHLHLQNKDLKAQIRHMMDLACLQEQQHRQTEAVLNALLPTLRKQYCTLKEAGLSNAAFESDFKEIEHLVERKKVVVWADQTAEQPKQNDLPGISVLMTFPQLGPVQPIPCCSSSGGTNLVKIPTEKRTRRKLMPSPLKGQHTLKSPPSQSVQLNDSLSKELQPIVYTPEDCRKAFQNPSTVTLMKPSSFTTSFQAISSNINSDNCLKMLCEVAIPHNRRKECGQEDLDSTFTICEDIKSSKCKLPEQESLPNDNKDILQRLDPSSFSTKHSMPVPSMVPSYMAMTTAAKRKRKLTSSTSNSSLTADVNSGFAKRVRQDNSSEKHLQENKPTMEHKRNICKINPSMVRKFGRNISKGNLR
Chain of hKIF18A (1-374) (Q2XVP4 whole entry partner, looked up): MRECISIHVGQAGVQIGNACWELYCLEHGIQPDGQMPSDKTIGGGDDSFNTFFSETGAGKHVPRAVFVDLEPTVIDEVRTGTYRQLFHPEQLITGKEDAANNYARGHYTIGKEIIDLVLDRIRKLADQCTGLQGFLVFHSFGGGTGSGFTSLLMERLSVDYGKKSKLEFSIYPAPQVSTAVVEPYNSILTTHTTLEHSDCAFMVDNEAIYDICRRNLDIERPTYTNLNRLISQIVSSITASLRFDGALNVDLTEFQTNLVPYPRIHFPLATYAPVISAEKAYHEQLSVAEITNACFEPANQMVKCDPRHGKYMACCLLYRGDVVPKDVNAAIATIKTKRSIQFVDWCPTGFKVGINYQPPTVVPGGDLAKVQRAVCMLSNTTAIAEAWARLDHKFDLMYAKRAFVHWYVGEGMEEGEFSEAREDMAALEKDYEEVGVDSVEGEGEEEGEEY
Chain of hKIF18A (1-374) (P02554 whole entry partner, looked up): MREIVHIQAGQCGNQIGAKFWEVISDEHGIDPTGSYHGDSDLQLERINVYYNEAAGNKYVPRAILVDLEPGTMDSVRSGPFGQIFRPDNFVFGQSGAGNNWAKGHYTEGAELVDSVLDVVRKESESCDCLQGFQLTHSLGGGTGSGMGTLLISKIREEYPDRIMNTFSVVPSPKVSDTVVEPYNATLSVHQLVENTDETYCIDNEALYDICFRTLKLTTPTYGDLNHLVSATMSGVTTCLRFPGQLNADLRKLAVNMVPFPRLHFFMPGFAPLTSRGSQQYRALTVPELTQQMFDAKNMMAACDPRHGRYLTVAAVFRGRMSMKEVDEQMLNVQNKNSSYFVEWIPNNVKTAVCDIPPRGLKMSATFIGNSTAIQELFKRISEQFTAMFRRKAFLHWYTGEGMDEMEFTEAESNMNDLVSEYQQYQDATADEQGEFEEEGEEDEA
Another assay concerns HCC15 cells. Kind of assay: Cell viability of KIF18a-sensitive cell lines, HCC15 (Cell Titre-Glo, 7 days). The format is cell-based. The following applies: HCC15, 168 h, read-out: HCC-15 IC50. The procedure:
Cell Viability of KIF18a-Sensitive Cell Lines
Cell lines were seeded as follows 24 hours before compound treatment: HCC15 (Korean Cell Line Bank) 600 cell/well, 95 μL of RPMI-1640 media supplemented with 100 units/mL penicillin, 100 units/mL streptomycin and 10% FBS; NIH:OVCAR-3 (ATCC), 1000 cell/well, 95 μL of RPMI-1640 media supplemented with 100 units/mL penicillin, 100 units/mL streptomycin, 0.01 mg/mL bovine insulin, and 20% FBS; JIMT-1 (Addexbio) 1000 cell/well, 95 μL of DMEM media supplemented with 100 units/mL penicillin, 100 units/mL streptomycin, and 10% FBS.
Test compounds were added to cells in a 20× dilution scheme by adding 5 μL of serially diluted compound to the plate, and the treated cells were incubated for an additional 7 days in a 37° C., 5% CO2 incubator. DMSO was used as the negative control (0% effect), and wells omitting cells were used as the positive control (100% effect). The cells were incubated for seven days, and cell viability determined via the Promega Cell Titre-Glo® Assay kit. Luminescence units were converted to ATP concentrations via an ATP standard curve (10 point, 2-fold dilution from 5 uM). % Inhibition was calculated for each well as: ([max−min]−[test−min])/[max−min]. IC50 values were calculated from concentration vs. % Inhibition data via a four-parameter variable slope model.

The target in assay [1] is KIF18a-Microtubule Complex (Homo sapiens (Human), UniProt Q8NI77). Briefly: Binding kinetics to KIF18a-microtubule complex (global progress curve analysis). The following applies: for Ki: read-out: KI (determined from binding kinetic assay koff/kon), koff/kon; for koff: read-out: koff (off-rate from binding kinetics assay). How it is done: Binding Kinetics to KIF18a-Microtubule Complex
Chain of KIF18a-Microtubule Complex (Q8NI77 whole entry, looked up): as the sequence (Q8NI77 whole entry, looked up) above
Chain of KIF18a-Microtubule Complex (Q2XVP4 whole entry partner, looked up): as the sequence (Q2XVP4 whole entry partner, looked up) above
Chain of KIF18a-Microtubule Complex (P02554 whole entry partner, looked up): as the sequence (P02554 whole entry partner, looked up) above
Compound binding kinetics parameters (kon and koff) were determined by the method of global progress curve analysis (GPCA). […] ADP product levels were determined by the Promega® ADP-Glo assay. The time/dose-dependent progress curves were then globally fit to a Michaelis-Menten kinetics model with 1-step slow binding inhibition to derive both on-rate kon and off-rate koff values (Zhang, R., Wong, K. (2017): “High performance enzyme kinetics of turnover, activation and inhibition for translational drug discovery”, Expert Opinion on Drug Discovery, 2017 January; 12(1):17-37. doi: 10.1080/17460441.2017.1245721).

Setting [2] is: KIF18A microtubule-dependent ATPase activity, biochemical assay.
Setting [3] is: HCC-15 cells, 7 days, Cell Titre-Glo.

Procedure for hKIF18A (1-374): Biological Assays Inhibition of KIF18A Microtubule-Dependent ATPase Activity:
Test compounds were plated in a 3× dilution scheme in a 384-well plate. Assay buffer: 80 mM PIPES (pH 6.9), 1 mM MgCl2, 75 mM KCl, 1 mM EGTA, 1 mM DTT, 0.01% BSA, 0.005% Tween-20, 1 μM Taxol in H2O. […] After incubation at room temperature for 30 min, 2.5 μL of microtubule mix was added [0.2 mg/mL pre-formed microtubules, 2.0 mM ATP in assay buffer], the plate was centrifuged for 30 s and then incubated at 28° C. for 60 min. 5 μL of Promega® ADP-Glo Max R1 was added, the plate was centrifuged for 30 s, and the mixture incubated for 4 h at room temperature. 10 μL of Promega® ADP-Glo Max R2 was added, the plate centrifuged for 30 s, and incubated for 60 min at room temperature. Luminescence was measured with an Envision plate reader, and % Inhibition was calculated for each well as: ([max−min]−[test−min])/[max−min]. IC50 values were calculated from concentration vs. % Inhibition data via a four-parameter variable slope model.

Take `O=C(Nc1cccc(C(=O)N2CC3(CCCC3)c3c(F)cccc32)c1)NC1CC1` [Compound 2′, 1-cyclopropyl-3-(3-(4′-fluorospiro[cyclopentane-1,3′-indolin]-1′-carbonyl)phenyl)urea]: the IC50 (in general, the midpoint of a concentration-inhibition curve) was 920 nM against hKIF18A (1-374) (setting [2]) and 2600 nM in the assay on HCC15 cells (setting [3]).

In the case of `O=C(c1cccc(S(=O)(=O)N2CCC(F)(F)CC2)c1)N1CC2(CCC3(CC3)CC2)c2ccccc21` [Compound 4, (3-((4,4-difluoropiperidin-1-yl)sulfonyl)phenyl)(dispiro[cyclopropane-1,1′-cyclohexane-4′,3″-indolin]-1″- yl)methanone], the IC50 at hKIF18A (1-374) (setting [2]) is 360 nM; in the assay with HCC15 cells (setting [3]), 2100 nM.

For the molecule `CC(C)(C)NS(=O)(=O)c1cccc(C(=O)N2CC3(CCC4(CC4)CC3)c3ccccc32)c1` [Compound 10, N-(tert-butyl)-3-(dispiro[cyclopropane-1,1′-cyclohexane-4′,3″-indoline]-1″- carbonyl)benzenesulfonamide], the IC50 came to 270 nM against hKIF18A (1-374) (setting [2]) and 2200 nM with HCC15 cells (setting [3]).

Take `CS(=O)(=O)Nc1ccc2c(c1)C1(CCCC1)CN2C(=O)c1cccc(S(=O)(=O)N2CCC(F)(F)CC2)c1` [Compound 18, N-(1′-(3-((4,4-difluoropiperidin-1-yl)sulfonyl)benzoyl)spiro[cyclopentane-1,3′-indolin]-5′-yl)methanesulfonamide]: the IC50 at hKIF18A (1-374) (setting [2]) was determined as 79 nM; in the assay with HCC15 cells, 160 nM.

Turning to `CS(=O)(=O)Nc1ccc2c(c1)C1(CCC3(CC3)CC1)CN2C(=O)c1cccc(S(=O)(=O)N2CCCCC2)c1` [Compound 20, N-(1″-(3-(piperidin-1-ylsulfonyl)benzoyl)dispiro[cyclopropane-1,1′-cyclohexane-4′,3″-indolin]-5″- yl)methanesulfonamide], the figures for the IC50 on hKIF18A (1-374) (setting [2]) and with HCC15 cells (setting [3]) were 13 nM and 25 nM, respectively.

For the molecule `CS(=O)(=O)Nc1ccc2c(c1)C1(CCC3(CC3)CC1)CN2C(=O)c1cccc(S(=O)(=O)N2CCCC2)c1` [Compound 21, N-(1″-(3-(pyrrolidin-1-ylsulfonyl)benzoyl)dispiro[cyclopropane-1,1′-cyclohexane-4′,3″-indolin]-5″- yl)methanesulfonamide], the IC50 at hKIF18A (1-374) (setting [2]) is 19 nM; in the assay on HCC15 cells (setting [3]) it was 55 nM.

Consider `CC1CCC2(CC1)CN(C(=O)c1cccc(S(=O)(=O)N3CCC(F)(F)CC3)c1)c1ccc(NS(C)(=O)=O)cc12` (stereo not drawn) [Compound 24, N-(1′-(3-((4,4-difluoropiperidin-1-yl)sulfonyl)benzoyl)-4-methylspiro[cyclohexane-1,3′-indolin]-5′-yl)methanesulfonamide], for which the IC50 is 10 nM against hKIF18A (1-374) and 23 nM with HCC15 cells (setting [3]).

Regarding `CC(C)(C)NS(=O)(=O)c1cccc(C(=O)N2CC3(CCCCC3)c3cc(NS(C)(=O)=O)ccc32)c1` [Compound 26, N-(tert-butyl)-3-(5′-(methylsulfonamido)spiro[cyclohexane-1,3′-indoline]-1′-carbonyl)benzenesulfonamide], the IC50 on hKIF18A (1-374) (setting [2]) was determined as 67 nM; with HCC15 cells (setting [3]) it was 69 nM.

Consider `O=C(c1cccc(S(=O)(=O)N2CCC(F)(F)CC2)c1)N1CC2(CCCC2)c2cc(NS(=O)(=O)CCO)ccc21` [Compound 27, N-(1′-(3-((4,4-difluoropiperidin-1-yl)sulfonyl)benzoyl)spiro[cyclopentane-1,3′-indolin]-5′-yl)-2-hydroxyethane-1-sulfonamide], for which, in the assay on HCC15 cells, the IC50 was 140 nM.

For `CS(=O)(=O)Nc1ccc2c(c1)C1(CCC3(CC3)CC1)CN2C(=O)c1cccc(S(=O)(=O)N2CCC(F)(F)CC2)c1` [Compound 28, N-(1″-(3-((4,4-difluoropiperidin-1-yl)sulfonyl)benzoyl)dispiro[cyclopropane-1,1′-cyclohexane-4′,3″-indolin]-5″-yl)methanesulfonamide], the figures for the IC50 against hKIF18A (1-374) (setting [2]) and in the assay with HCC15 cells (setting [3]) were 10 nM and 24 nM, respectively.

On to `O=C(c1cccc(S(=O)(=O)N2CCC(F)(F)CC2)c1)N1CC2(CCC3(CC3)CC2)c2cc(NS(=O)(=O)CCO)ccc21` [Compound 29, N-(1″-(3-((4,4-difluoropiperidin-1-yl)sulfonyl)benzoyl)dispiro[cyclopropane-1,1′-cyclohexane-4′,3″-indolin]-5″-yl)-2-hydroxyethane-1-sulfonamide], for which the concentration for half-maximal inhibition (IC50) on hKIF18A (1-374) (setting [2]) came out at 22 nM; in the assay on HCC15 cells (setting [3]), 330 nM.

Turning to `CS(=O)(=O)Nc1ccc2c(c1)C1(CCCCC1)CN2C(=O)c1cccc([S+]([O-])C2CCCC2)c1` (stereo not drawn) [Compound 43, N-(1′-(3-(cyclopentylsulfinyl)benzoyl)spiro [cyclohexane-1,3′-indolin]-5′-yl)methanesulfonamide], the values for the IC50 at hKIF18A (1-374) (setting [2]) and in the assay on HCC15 cells (setting [3]) were 89 nM and 490 nM, respectively.

In the case of `CC1CCC2(CC1)CN(C(=O)c1cccc(S(=O)(=O)NC(C)(C)C)c1)c1ccc(NS(C)(=O)=O)cc12` (stereo not drawn) [Compound 140, N-(tert-butyl)-3-(4-methyl-5′-(methylsulfonamido)spiro[cyclohexane-1,3′-indoline]-1′-carbonyl)benzenesulfonamide], the half-maximal inhibitory concentration (IC50) against hKIF18A (1-374) (setting [2]) is 13 nM; in the assay with HCC15 cells (setting [3]), 38 nM.

Consider `CS(=O)(=O)Nc1ccc2c(c1)C1(CCC3(CC3)CC1)CN2C(=O)c1cccc(S(=O)(=O)N2CC3(CCO3)C2)c1` [Compound 153, N-(1″-(3-((1-oxa-6-azaspiro[3.3]heptan-6-yl)sulfonyl)benzoyl)dispiro[cyclopropane-1,1′-cyclohexane-4′,3″-indolin]-5″- yl)methanesulfonamide], for which the IC50 at hKIF18A (1-374) (setting [2]) stood at 18 nM; in the assay with HCC15 cells (setting [3]), 44 nM.

With `CS(=O)(=O)Nc1ccc2c(c1)C1(CCC3(CC3)CC1)CN2C(=O)c1cccc(S(=O)(=O)NC2CCC2)c1` [Compound 168, N-cyclobutyl-3-(5″- (methylsulfonamido)dispiro[cyclopropane-1,1′-cyclohexane-4′,3″-indoline]-1″-carbonyl)benzenesulfonamide], the IC50 is 5.5 nM on hKIF18A (1-374) (setting [2]) and 28 nM in the assay on HCC15 cells (setting [3]).

Consider `CS(=O)(=O)Nc1ccc2c(c1)C1(CCC3(CC3)CC1)CN2C(=O)c1cccc(S(=O)(=O)N2CC3C(C2)C3(F)F)c1` (stereo not drawn) [Compound 237, N-(1″-(3-((6,6-difluoro-3-azabicyclo[3.1.0]hexan-3-yl)sulfonyl)benzoyl)dispiro[cyclopropane-1,1′-cyclohexane-4′,3″-indolin]-5″- yl)methanesulfonamide], for which the IC50 against hKIF18A (1-374) (setting [2]) is 11 nM. Also, the “kon (on-rate from binding kinetics assay)” value (from here on “kon”) in assay [1] (global progress curve analysis) came to 22800 M⁻¹ s⁻¹. Also, in assay [1], the “disc. t1/2 (dissociation half-life ln(2)/koff)” value is recorded as 19 h; the Ki came to 0.44 nM; the koff – broadly, the first-order rate constant of dissociation – was 1e-05 s⁻¹.

`CC(C)(C)NS(=O)(=O)c1cc(C(=O)N2CC3(CCC4(CC4)CC3)c3cc(NS(C)(=O)=O)ccc32)cs1` [Compound 262, N-(tert-butyl)-4-(5″- (methylsulfonamido)dispiro[cyclopropane-1,1′-cyclohexane-4′,3″-indoline]-1″-carbonyl)thiophene-2-sulfonamide] yielded an IC50 against hKIF18A (1-374) (setting [2]) of 5.9 nM. For the same molecule, the “kon” value in assay [1] (global progress curve analysis) came out at 8890 M⁻¹ s⁻¹. In assay [1], the “disc. t1/2 (dissociation half-life ln(2)/koff)” value was 6.7 h, the Ki worked out at 0.31 nM and the koff is 2.86e-05 s⁻¹.

On hKIF18A (1-374) (setting [2]), `CCS(=O)(=O)Nc1ccc2c(c1)C1(CCC3(CC3)CC1)CN2C(=O)c1cc(S(=O)(=O)NC(C)(C)C)cs1` [Compound 269, N-(tert-butyl)-5-(5″- (ethylsulfonamido)dispiro[cyclopropane-1,1′-cyclohexane-4′,3″-indoline]-1″- carbonyl)thiophene-3-sulfonamide] came in with an IC50 of 79 nM. For the same molecule, in assay [1] (global progress curve analysis), the “kon” value was 5560 M⁻¹ s⁻¹. Moreover, in assay [1], the “disc. t1/2 (dissociation half-life ln(2)/koff)” value stood at 8.7 h, the Ki is 4 nM and the koff was 2.22e-05 s⁻¹.

Regarding `CC(C)(C)NS(=O)(=O)c1cc(C(=O)N2CC3(CCC4(CC4)CC3)c3cc(NS(C)(=O)=O)ccc32)ccc1O` [Compound 298, N-(tert-butyl)-2-hydroxy-5-(5″-(methylsulfonamido)dispiro[cyclopropane-1,1′-cyclohexane-4′,3″-indoline]-1″-carbonyl)benzenesulfonamide], the midpoint of inhibition at hKIF18A (1-374) (setting [2]), the IC50, lay at 8.4 nM. The “kon” value in assay [1] (global progress curve analysis) was found to be 19700 M⁻¹ s⁻¹. For the same molecule, in assay [1], the “disc. t1/2 (dissociation half-life ln(2)/koff)” value worked out at 26 h, the Ki came to 0.38 nM and the koff is 7.5e-06 s⁻¹.

As for `CCS(=O)(=O)Nc1ccc2c(c1)[C@]1(CC[C@H](C(F)F)CC1)CN2C(=O)c1cccc(S(=O)(=O)NC(C)(C)C)c1` [Compound 333b], half-maximal inhibition on hKIF18A (1-374) (setting [2]) (IC50) was put at 33 nM. For the same molecule, in assay [1] (global progress curve analysis), the “koff (off-rate from binding kinetics assay)” value worked out at 3.06e-06 s⁻¹ and the “kon” value turned out to be 3890 M⁻¹ s⁻¹. Also, in assay [1], the “disc. t1/2 (dissociation half-life ln(2)/koff)” value was 63 h and the Ki stood at 0.77 nM.
